Assays:
Format in all cases: functional
HCC 2998 = assay: Growth inhibition of human HCC2998 cells
UACC-257 = assay: Growth inhibition of human UACC257 cells
MDA-MB-231 = assay: Growth inhibition of human MDA-MB-231 cells
OVCAR-8 = assay: Growth inhibition of human OVCAR8 cells
A549 = assay: Growth inhibition of human A549 cells
PC-3 = assay: Growth inhibition of human PC3 cells
RXF 393 = assay: Growth inhibition of human RXF393 cells
HT-29 = assay: Growth inhibition of human HT-29 cells
COLO 205 = assay: Growth inhibition of human COLO205 cells
K562 = assay: Growth inhibition of human K562 cells
BT-549 = assay: Growth inhibition of human BT549 cells
SNB-75 = assay: Growth inhibition of human SNB75 cells
IGROV-1 = assay: Growth inhibition of human IGROV1 cells
786-0 = assay: Growth inhibition of human 786-0 cells
ACHN = assay: Growth inhibition of human ACHN cells
SNB-19 = assay: Growth inhibition of human SNB19 cells
SK-MEL-5 = assay: Growth inhibition of human SK-MEL-5 cells
UO-31 = assay: Growth inhibition of human UO31 cells
Malme-3M = assay: Growth inhibition of human MALME-3M cells
NCI-H23 = assay: Growth inhibition of human NCI-H23 cells
U-251 = assay: Growth inhibition of human U251 cells
CAKI-1 = assay: Growth inhibition of human Caki1 cells
HOP-62 = assay: Growth inhibition of human HOP62 cells
CCRF-CEM = assay: Growth inhibition of human CCRF-CEM cells
[1] = Growth inhibition of human Hs 578T cells
OVCAR-4 = assay: Growth inhibition of human OVCAR4 cells
SK-MEL-2 = assay: Growth inhibition of human SK-MEL-2 cells
MOLT-4 = assay: Growth inhibition of human MOLT4 cells
SK-MEL-28 = assay: Growth inhibition of human SK-MEL-28 cells
NCI-H226 = assay: Growth inhibition of human NCI-H226 cells
HOP-92 = assay: Growth inhibition of human HOP92 cells
T47D = assay: Growth inhibition of human T47D cells
OVCAR-5 = assay: Growth inhibition of human OVCAR5 cells
[2] = Growth inhibition of human MCF7/ADR cells; details: NCI/ADR-RES
MCF7 = assay: Growth inhibition of human MCF7 cells
MDA-N = assay: Growth inhibition of human MDA-N cells
LOX IMVI = assay: Growth inhibition of human LOXIMVI cells
TK-10 = assay: Growth inhibition of human TK10 cells
EKVX = assay: Growth inhibition of human EKVX cells
HCT-116 = assay: Growth inhibition of human HCT116 cells
NCI-H522 = assay: Growth inhibition of human NCI-H522 cells
UACC-62 = assay: Growth inhibition of human UACC62 cells
SF-268 = assay: Growth inhibition of human SF268 cells
M14 = assay: Growth inhibition of human M14 cells
NCI-H322M = assay: Growth inhibition of human NCI-H322M cells
HCT-15 = assay: Growth inhibition of human HCT15 cells
A498 = assay: Growth inhibition of human A498 cells
KM12 = assay: Growth inhibition of human KM12 cells
MDA-MB-435 = assay: Growth inhibition of human MDA-MB-435 cells
OVCAR-3 = assay: Growth inhibition of human OVCAR-3 cells
HL-60(TB) = assay: Growth inhibition of human HL-60(TB) cells
SW-620 = assay: Growth inhibition of human SW620 cells
SF-539 = assay: Growth inhibition of human SF539 cells
DU-145 = assay: Growth inhibition of human DU145 cells
SK-OV-3 = assay: Growth inhibition of human SKOV3 cells
SN12C = assay: Growth inhibition of human SN12C cells
SR = assay: Growth inhibition of human SR cells
NCI-H460 = assay: Growth inhibition of human NCI-H460 cells

CC(C)CC(=O)O[C@H]1C(=O)O[C@@H]2C[C@H]3[C@H](C)C(=O)C(O[C@@H]4O[C@H](CO)[C@@H](O)[C@H](O)[C@H]4O)=C[C@]3(C)[C@H]3[C@@H](O)[C@H](O)[C@]4(C(=O)O)OC[C@]32[C@@H]14 [BRUCEOSIDE E]
GI50 (HCC 2998): 20.4 µM | GI50 (UACC-257): > 100 µM | GI50 (MDA-MB-231): > 100 µM | GI50 (OVCAR-8): > 100 µM | GI50 (A549): 41.7 µM | GI50 (PC-3): > 100 µM | GI50 (RXF 393): 10.7 µM | GI50 (HT-29): 33.9 µM | GI50 (COLO 205): > 100 µM | GI50 (K562): 24 µM | GI50 (BT-549): > 100 µM | GI50 (SNB-75): > 100 µM | GI50 (IGROV-1): 35.5 µM | GI50 (786-0): > 100 µM | GI50 (ACHN): > 100 µM | GI50 (SNB-19): 31.6 µM | GI50 (SK-MEL-5): 28.2 µM | GI50 (UO-31): > 100 µM | GI50 (Malme-3M): 22.9 µM | GI50 (NCI-H23): > 100 µM | GI50 (U-251): 31.6 µM | GI50 (CAKI-1): > 100 µM | GI50 (HOP-62): 44.7 µM | GI50 (CCRF-CEM): 24.5 µM | GI50 [1]: 39.8 µM | GI50 (OVCAR-4): 1.91 µM | GI50 (SK-MEL-2): > 100 µM | GI50 (MOLT-4): 19.1 µM | GI50 (SK-MEL-28): 25.1 µM | GI50 (NCI-H226): 29.5 µM | GI50 (HOP-92): 37.2 µM | GI50 (T47D): > 100 µM | GI50 (OVCAR-5): > 100 µM | GI50 [2]: > 100 µM | GI50 (MCF7): 28.2 µM | GI50 (MDA-N): > 100 µM | GI50 (LOX IMVI): 38.9 µM | GI50 (TK-10): > 100 µM | GI50 (EKVX): > 100 µM | GI50 (HCT-116): 33.1 µM | GI50 (NCI-H522): 2.19 µM | GI50 (UACC-62): > 100 µM | GI50 (SF-268): > 100 µM | GI50 (M14): > 100 µM | GI50 (NCI-H322M): > 100 µM | GI50 (HCT-15): > 100 µM | GI50 (A498): > 100 µM | GI50 (KM12): > 100 µM | GI50 (MDA-MB-435): > 100 µM | GI50 (OVCAR-3): 36.3 µM | GI50 (HL-60(TB)): 41.7 µM | GI50 (SW-620): > 100 µM | GI50 (SF-539): 20.4 µM | GI50 (DU-145): > 100 µM | GI50 (SK-OV-3): > 100 µM | GI50 (SN12C): > 100 µM | GI50 (SR): 33.9 µM | GI50 (NCI-H460): 27.5 µM

CC(=O)OC(C)(C)/C(C)=C/C(=O)O[C@H]1C(=O)O[C@@H]2C[C@H]3[C@H](C)C(=O)C(O[C@@H]4O[C@H](CO)[C@@H](O)[C@H](O)[C@H]4O)=C[C@]3(C)[C@H]3[C@@H](O)[C@H](O)[C@]4(C(=O)O)OC[C@]32[C@@H]14 [BRUCEOSIDE F]
GI50 (HCC 2998): 36.3 µM | GI50 (UACC-257): > 100 µM | GI50 (MDA-MB-231): > 100 µM | GI50 (OVCAR-8): > 100 µM | GI50 (A549): > 100 µM | GI50 (PC-3): > 100 µM | GI50 (RXF 393): 37.2 µM | GI50 (HT-29): > 100 µM | GI50 (COLO 205): > 100 µM | GI50 (K562): 39.8 µM | GI50 (BT-549): > 100 µM | GI50 (SNB-75): > 100 µM | GI50 (IGROV-1): > 100 µM | GI50 (786-0): > 100 µM | GI50 (ACHN): > 100 µM | GI50 (SNB-19): > 100 µM | GI50 (SK-MEL-5): > 100 µM | GI50 (UO-31): > 100 µM | GI50 (Malme-3M): 56.2 µM | GI50 (NCI-H23): > 100 µM | GI50 (U-251): > 100 µM | GI50 (CAKI-1): > 100 µM | GI50 (HOP-62): 69.2 µM | GI50 (CCRF-CEM): 43.7 µM | GI50 [1]: > 100 µM | GI50 (OVCAR-4): > 100 µM | GI50 (SK-MEL-2): > 100 µM | GI50 (MOLT-4): 33.9 µM | GI50 (SK-MEL-28): > 100 µM | GI50 (NCI-H226): 72.4 µM | GI50 (HOP-92): 66.1 µM | GI50 (T47D): > 100 µM | GI50 (OVCAR-5): > 100 µM | GI50 [2]: > 100 µM | GI50 (MCF7): 27.5 µM | GI50 (MDA-N): > 100 µM | GI50 (LOX IMVI): > 100 µM | GI50 (TK-10): > 100 µM | GI50 (EKVX): > 100 µM | GI50 (HCT-116): 38 µM | GI50 (NCI-H522): 18.6 µM | GI50 (UACC-62): > 100 µM | GI50 (SF-268): > 100 µM | GI50 (M14): > 100 µM | GI50 (NCI-H322M): > 100 µM | GI50 (HCT-15): > 100 µM | GI50 (A498): > 100 µM | GI50 (KM12): > 100 µM | GI50 (MDA-MB-435): > 100 µM | GI50 (OVCAR-3): 25.7 µM | GI50 (HL-60(TB)): 47.9 µM | GI50 (SW-620): > 100 µM | GI50 (SF-539): 56.2 µM | GI50 (DU-145): > 100 µM | GI50 (SK-OV-3): > 100 µM | GI50 (SN12C): > 100 µM | GI50 (SR): 49 µM | GI50 (NCI-H460): 39.8 µM

CC(C)=CC(=O)O[C@H]1C(=O)O[C@@H]2C[C@H]3[C@H](C)C(=O)C(O[C@@H]4O[C@H](CO)[C@@H](O)[C@H](O)[C@H]4O)=C[C@]3(C)[C@H]3[C@@H](O)[C@H](O)[C@]4(C(=O)O)OC[C@]32[C@@H]14 [BRUCEOSIDE D]
GI50 (HCC 2998): 24.5 µM | GI50 (UACC-257): > 100 µM | GI50 (MDA-MB-231): > 100 µM | GI50 (OVCAR-8): > 100 µM | GI50 (A549): 55 µM | GI50 (PC-3): > 100 µM | GI50 (RXF 393): 25.1 µM | GI50 (HT-29): 35.5 µM | GI50 (COLO 205): > 100 µM | GI50 (K562): 25.7 µM | GI50 (BT-549): > 100 µM | GI50 (SNB-75): > 100 µM | GI50 (IGROV-1): > 100 µM | GI50 (786-0): > 100 µM | GI50 (ACHN): > 100 µM | GI50 (SNB-19): 31.6 µM | GI50 (SK-MEL-5): 42.7 µM | GI50 (UO-31): 31.6 µM | GI50 (Malme-3M): 24 µM | GI50 (NCI-H23): > 100 µM | GI50 (U-251): 39.8 µM | GI50 (CAKI-1): > 100 µM | GI50 (HOP-62): 33.1 µM | GI50 (CCRF-CEM): 36.3 µM | GI50 [1]: > 100 µM | GI50 (OVCAR-4): 25.1 µM | GI50 (SK-MEL-2): > 100 µM | GI50 (MOLT-4): 22.4 µM | GI50 (SK-MEL-28): 37.2 µM | GI50 (NCI-H226): 28.2 µM | GI50 (HOP-92): 31.6 µM | GI50 (T47D): > 100 µM | GI50 (OVCAR-5): > 100 µM | GI50 [2]: > 100 µM | GI50 (MCF7): 22.4 µM | GI50 (MDA-N): > 100 µM | GI50 (LOX IMVI): 40.7 µM | GI50 (TK-10): > 100 µM | GI50 (EKVX): > 100 µM | GI50 (HCT-116): 29.5 µM | GI50 (NCI-H522): 28.8 µM | GI50 (UACC-62): > 100 µM | GI50 (SF-268): > 100 µM | GI50 (M14): 32.4 µM | GI50 (NCI-H322M): > 100 µM | GI50 (HCT-15): > 100 µM | GI50 (A498): > 100 µM | GI50 (KM12): 49 µM | GI50 (MDA-MB-435): > 100 µM | GI50 (OVCAR-3): 20.4 µM | GI50 (HL-60(TB)): 35.5 µM | GI50 (SW-620): > 100 µM | GI50 (SF-539): 26.3 µM | GI50 (DU-145): > 100 µM | GI50 (SK-OV-3): > 100 µM | GI50 (SN12C): > 100 µM | GI50 (SR): 30.9 µM | GI50 (NCI-H460): 32.4 µM

Source: ChEMBL document CHEMBL1159270, “Bruceosides D, E, and F, three new cytotoxic quassinoid glucosides from Brucea javanica” (1995)
